From patent publication US8420692B1, “Heterocyclic and carbonate derivatives of NDGA and their use as new anti-HIV and anti-cancer agents” (The Johns Hopkins University, priority 2006, dated 2013)
pIC50: −log10 of the molar value. Counter-ions that a name gives are not always drawn.

Legend:
[1] = tested on: colon cancer cell line HT29; test: MTT-based cytotoxicity / proliferation assay, HT29; format: cell-based, human
Experimental: (§1) The cytotoxicity of P4N against Vero cells and human cancer cells HEP3B, HT29 and MCF7 was analyzed using an MTT [3-(4,5-dimethylthiazol-2-yl)-2,5-diphenyltetrazolium bromide]-based assay (Sigma). The absorbance of OD570 was a measurement of formazon crystals solubilized in DMSO from metabolically active cells. Procedures were discussed in Huang R C C, et al. in Antiviral Res 58, 57-64 2003.^10
(§2) We have previously shown that M4N arrests tumor cells growth at G2-M phase of the cell cycle by reducing the level of Cdc2 protein and kinase activity,^17,18 and induces apoptosis by suppressing survivin gene expression and protein stability and activating the mitochondrial apoptosis pathway.^17 M4N is able to reverse the multidrug resistance by inhibiting the Sp1-regulated MDR1 gene expression and preventing the synthesis of p-glycoprotein (Pgp).^24 To investigate the effect of water soluble NDGA derivative P4N on growth of the transformed cells, four cell lines, Vero cell (African green monkey kidney cells), human liver cancer line Hep3B, colon cancer cell line HT29, and human breast cancer line MCF-7 were selected for testing. The Vero cell line is aneuploid.

COS cells = test: Growth inhibition of untransfected COS cells; format: cell-based; settings: ≦1 μM, FIG. 9
Experimental: (§3) FIG. 9: Inhibition of HIV Tat-Regulated transactivation by Compound 5b P4N. The COS cells were co-transfected with a Tat-producing plasmid and a plasmid containing the HIV LTR linked to the SeAP reporter gene. Transfected cells were treated with various concentrations of 5b P4N. After 48 h, aliquots of media were removed and analysis of SeAP activity was performed. The percent inhibition of SeAP activity by 5b P4N ? was calculated in comparison with the percent of growth inhibition of untransfected COS cells by P4N ?

[2] = tested on: HIV Tat-regulated transactivation; test: cells; format: cell-based; settings: for Inhibition (%) of HIV Tat-regulated Transactivation in COS Cells: average of three experiments
Experimental: as §3, with “The” for “FIG. 9: Inhibition of HIV Tat-Regulated transactivation by Compound 5b P4N. The”
The medium used for dilution of compounds and maintenance of cultures during the assay was the same as described above. Cultures were maintained in disposable tissue culture labware at 37° C. in a humidified atmosphere of CO2 (5.0%) in air. Compounds were dissolved as stock solutions in water or dimethyl sulfoxide (DMSO) at the concentration of 10 mM. The stock solutions were diluted with H2O (5a-d) or DMSO (6a,b and 7) and dilute by medium to the desired concentration by a 30-s vortex just before addition into the cell culture. Triplicate cell samples were seeded at density of ˜1.5×10^4 cell per well in Libro 24-well flat-bottom culture dishes (17-mm diameter), which were incubated for 24 h until they reached 50% confluence. The cells were cotransfected by the calcium phosphate procedure with DNA from plasmids pBC12/CMV/t2 (coding for Tat function, 0.20 μg/well) and pBC12/HIV/SeAP (0.40 μg/well). Cells and DNAs were kept in contact for 6.0 h; then the medium was aspirated and replaced by 500 μL of medium containing the test compound. The compound-treated cells were then incubated for additional 48 h. At the end of incubation, an aliquot of cell culture medium was removed and SeAP activities were analyzed by spectrametric method.^20 The sample of culture medium were heated at 65° C. for 5.0 min to inactivate endogenous phosphatases selectively (SeAP is thermal stable). The buffer solution of 2×SeAP (100 μL, 1.0 M diethanolamine, pH 9.8; 0.50 mM MgCl2; 10 mM L-homoarginine) was added to the culture medium sample (100 μL) in a 96-well flat-bottom culture dish (Corning). Then, the substrate solution ([…], 120 mM, p-nitrophenyl phosphate dissolved in 1×SeAP buffer) was dispensed into each well containing the reaction mixture. The absorbance at wavelength 405 nm specific for the hydrolysis product was read at 2.5 min intervals at 37° C. over the course of 60 min on an EL340i microplate reader (Bio-tek Instruments) with 5 s automatic shaking before each reading.
Two plasmid constructs^19 were used to test the effect of synthesized NDGA derivatives on Tat-regulated HIV transactivation as described previously.^12,13,19 The plasmid constructs included a cytomegalovirus (CMV) promoter driven tat gene and SP1 regulated HIV LTR promoter driven reporter gene (i.e., SeAP). A standard SeAP assay in the absence of drug was initially run to find out efficiency of transfection.

[3] = tested on: Sp1 cognate binding site DNA (dsOLIGOsp); test: 1D NMR titration of the Sp1 cognate binding site; settings: FIG. 3
Text: FIG. 3: 1D 1H NMR spectra of free DNA, free P4N and 1:1 molar ratio DNA:P4N. The resonances with the largest chemical shift perturbation are indicated
The titration of the Sp1 cognate binding site with P4N was further studied by 1D NMR (FIG. 3). […] Changes in the chemical shifts and the line-widths of both the DNA and the drug indicate structural perturbations of the DNA upon titration with P4N. […] This is reflected in the split of the well resolved resonances of the carbon-nitrogen ring CH2 protons (which lie in an area of the spectrum that is free of DNA peaks). As shown on both FIG. 3 and FIG. 4 the largest perturbations of the P4N chemical shifts induced upon binding are those of the CH3 protons, aromatic protons and the carbon-nitrogen ring CH2 protons. […] Binding of Sp1 to dsOLIGOsp and binding of P4N to dsOLIGOsp are both reversible as shown in a competitive band-shift analysis (FIG. 6).

[4] = tested on: human liver cancer line Hep3B; test: MTT-based cytotoxicity / proliferation assay, Hep3B; format: cell-based
Experimental: as §1, §2

[5] = tested on: Vero cell (African green monkey kidney cells); test: MTT-based cytotoxicity / proliferation assay, Vero; format: cell-based; settings: 48 hrs, 37° C.
Experimental: as §1, §2

Compound: C[C@H](Cc1ccc(OCCN2CCCCC2)c(OCCN2CCCCC2)c1)[C@@H](C)Cc1ccc(OCCN2CCCCC2)c(OCCN2CCCCC2)c1 [Compound 5b, meso-2,3-Dimethyl-1,4-bis(3,4-[2-(piperidino)ethoxyphenyl])butane Tetrakishydrochloride Salt]
- pIC50 ([1]; 48 hrs, 37° C., read-out: IC50, proliferation of HT-29): 6.10
- Concentration that effectively eliminates growth of tumor cells ([1]; HT29, FIG. 11): < 5 µM
- Effect on the growth of the cos cells (COS cells): no effect
- Inhibition (%) of HIV Tat-regulated Transactivation in COS Cells ([2]; 0.10 μM): 8.7%
- Inhibition (%) of HIV Tat-regulated Transactivation in COS Cells ([2]; 0.25 μM): 4.3%
- Inhibition (%) of HIV Tat-regulated Transactivation in COS Cells ([2]; 0.50 μM): 29.0%
- Inhibition (%) of HIV Tat-regulated Transactivation in COS Cells ([2]; 1.0 μM): 56.8%
- Inhibition (%) of HIV Tat-regulated Transactivation in COS Cells ([2]; 2.5 μM): 90.6%
- Inhibition (%) of HIV Tat-regulated Transactivation in COS Cells ([2]; 5.0 μM): 97.0%
- Inhibition (%) of HIV Tat-regulated Transactivation in COS Cells ([2]; 10 μM): 99.8%
- Inhibition (%) of HIV Tat-regulated Transactivation in COS Cells ([2]; 20 μM): 100%
- Inhibition (%) of HIV Tat-regulated Transactivation in COS Cells ([2]; 40 μM): 100%
- Inhibition (%) of HIV Tat-regulated Transactivation in COS Cells ([2]; 80 μM): 100%
- Inhibition (%) of HIV Tat-regulated Transactivation in COS Cells ([2]; 100 μM): 97.7%
- pIC50 ([2]; COS cells, SeAP, mean of triplicate determinations, read-out: IC50, HIV Tat-regulated transactivation): 6.06
- HIV transactivation at the concentration without effect on cos cell growth ([2]; ≦1 μM, FIG. 9): fully inhibited
- Binding to the DNA (1D NMR titration) [3]: micro-molar range
- pIC50 ([4]; 48 hrs, 37° C.): 5.70
- Concentration that effectively eliminates growth of tumor cells ([4]; Hep3B, FIG. 11): < 5 µM
- Inhibition of rapidly dividing Vero cells ([5]; FIG. 11): extremely effective
- Inhibition of stationary phase vero cells ([5]; FIG. 11A): much less so
